Earlier results on three molecules are cited in patent publication US20220288358A1, “Drug-Coated Balloon Controllable In Drug Metabolism And Preparation Method Therefor” (Shanghai HeartCare Medical Technology Corporation Limited, priority 2019, published 2022).

“Also recorded” adds a separate entry of the source.

Sequence of FKBP12 protein (P62942 whole entry, species assumed): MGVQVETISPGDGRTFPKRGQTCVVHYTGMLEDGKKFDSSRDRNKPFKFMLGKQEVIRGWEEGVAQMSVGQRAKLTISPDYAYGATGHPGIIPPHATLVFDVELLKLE

This data set concerns the target FKBP12 protein (Homo sapiens, UniProt P62942). As to conditions: rank order from strong to weak; stated without data.
As to `CCOC(=O)[C@H](CC(C)C)NC(=O)[C@@H]1CSCCN1S(=O)(=O)c1ccc(C)cc1` [drug b, (3R)-4-(p-Toluenesulfonyl)-1,4-thiazane-3-carboxylicacid-L-leucine ethyl ester], the “ability to bind FKBP12 protein” value was “from strong to weak is drug c, drug b, and drug a”.

Consider `CCC(C)(C)C(=O)C(=O)N1CCC[C@H]1C(=O)OCCCc1cccnc1` [drug a, 3-pyridin-3-ylpropyl-(2 S)-1-(3,3-dimethyl-2-oxo-pentanoyl)-pyrrolidine-2-carboxylate], for which the “ability to bind FKBP12 protein” value is “from strong to weak is drug c, drug b, and drug a”.

As to `Cc1ccc(S(=O)(=O)N2CCSC[C@H]2C(=O)N[C@@H](Cc2ccccc2)C(=O)OCc2ccccc2)cc1` [drug c, (3R)-4-(p-Toluenesulfonyl)-1,4-thiazane-3-carboxylic acid-L-phenylalanine benzyl ester], the “ability to bind FKBP12 protein” value is “stronger than that of drug a; also recorded: from strong to weak is drug c, drug b, and drug a”.
